Assay results published in patent publication US9975896B2, “Inhibitors of transcription factors and uses thereof” (Dana-Farber Cancer Institute, Inc., priority 2013, dated 2018).
Like-named read-outs stand apart in the source and are kept apart here.

Key:
ATAD2A = target: T1, ATAD2A (Homo sapiens, UniProt Q6PL18); assay: BromoScan selectivity panel (Kd); format: binding
T1 sequence (Q6PL18 981-1108 limits assumed): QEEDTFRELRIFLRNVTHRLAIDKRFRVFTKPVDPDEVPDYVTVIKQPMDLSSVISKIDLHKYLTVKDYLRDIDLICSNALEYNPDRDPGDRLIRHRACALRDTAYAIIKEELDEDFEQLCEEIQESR

BRD2(1) = target: T2, BRD2(1) (Homo sapiens, UniProt P25440); assay: BromoScan selectivity panel (Kd); format: binding
T2 construct: the bromodomain-containing protein is BRD2(1)

BRD2(2) = target: T3, BRD2(2) (Homo sapiens, UniProt P25440); assay: BromoScan selectivity panel (Kd); format: binding
T3 construct: the bromodomain-containing protein is BRD2(2)

BRD3(1) = target: T4, BRD3(1) (Homo sapiens, UniProt Q15059); assay: BromoScan selectivity panel (Kd); format: binding
T4 construct: the bromodomain-containing protein is BRD3(1)

BRD3(2) = target: T5, BRD3(2) (Homo sapiens, UniProt Q15059); assay: BromoScan selectivity panel (Kd); format: binding
T5 construct: the bromodomain-containing protein is BRD3(2)

BRD4(2) = target: T6, BRD4(2) (Homo sapiens, UniProt O60885); assay: BromoScan selectivity panel (Kd); format: binding
T6 construct: the bromodomain-containing protein is BRD4(2)

BRDT(1) = target: T7, BRDT(1) (Homo sapiens, UniProt Q58F21); assay: BromoScan selectivity panel (Kd); format: binding
T7 construct: the bromodomain-containing protein is BRDT(1)

BRDT(2) = BRDT(2) (Homo sapiens, UniProt Q58F21); assay: BromoScan selectivity panel (Kd); format: binding
BRPF1 = target: T8, BRPF1 (Homo sapiens, UniProt P55201); assay: BromoScan selectivity panel (Kd); format: binding
T8 sequence (P55201 626-740 limits assumed): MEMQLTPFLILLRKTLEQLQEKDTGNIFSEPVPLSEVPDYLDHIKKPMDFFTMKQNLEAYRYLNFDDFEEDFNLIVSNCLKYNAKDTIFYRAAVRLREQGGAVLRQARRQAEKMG

BRPF3 = target: T9, BRPF3 (Homo sapiens, UniProt Q9ULD4); assay: BromoScan selectivity panel (Kd); format: binding
T9 sequence (Q9ULD4 589-693 limits assumed): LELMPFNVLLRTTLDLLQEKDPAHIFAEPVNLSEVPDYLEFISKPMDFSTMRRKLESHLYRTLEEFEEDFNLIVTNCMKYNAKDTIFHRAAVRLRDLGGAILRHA

PERM1(2) = target: T10, PERM1(2) (Homo sapiens, UniProt Q86U86); assay: BromoScan selectivity panel (Kd); format: binding
T10 construct: PERM1(2)

TRIM33(PHD Bromo.) = target: T11, TRIM33(PHD Bromo.) (Homo sapiens, UniProt Q9UPN9); assay: BromoScan selectivity panel (Kd); format: binding
T11 construct: TRIM33(PHD, Bromo.); TRIM33(PHD Bromo.); fused on or other part: The vendor panel's detection tag or display handle
T11 sequence (Q9UPN9 1-1127): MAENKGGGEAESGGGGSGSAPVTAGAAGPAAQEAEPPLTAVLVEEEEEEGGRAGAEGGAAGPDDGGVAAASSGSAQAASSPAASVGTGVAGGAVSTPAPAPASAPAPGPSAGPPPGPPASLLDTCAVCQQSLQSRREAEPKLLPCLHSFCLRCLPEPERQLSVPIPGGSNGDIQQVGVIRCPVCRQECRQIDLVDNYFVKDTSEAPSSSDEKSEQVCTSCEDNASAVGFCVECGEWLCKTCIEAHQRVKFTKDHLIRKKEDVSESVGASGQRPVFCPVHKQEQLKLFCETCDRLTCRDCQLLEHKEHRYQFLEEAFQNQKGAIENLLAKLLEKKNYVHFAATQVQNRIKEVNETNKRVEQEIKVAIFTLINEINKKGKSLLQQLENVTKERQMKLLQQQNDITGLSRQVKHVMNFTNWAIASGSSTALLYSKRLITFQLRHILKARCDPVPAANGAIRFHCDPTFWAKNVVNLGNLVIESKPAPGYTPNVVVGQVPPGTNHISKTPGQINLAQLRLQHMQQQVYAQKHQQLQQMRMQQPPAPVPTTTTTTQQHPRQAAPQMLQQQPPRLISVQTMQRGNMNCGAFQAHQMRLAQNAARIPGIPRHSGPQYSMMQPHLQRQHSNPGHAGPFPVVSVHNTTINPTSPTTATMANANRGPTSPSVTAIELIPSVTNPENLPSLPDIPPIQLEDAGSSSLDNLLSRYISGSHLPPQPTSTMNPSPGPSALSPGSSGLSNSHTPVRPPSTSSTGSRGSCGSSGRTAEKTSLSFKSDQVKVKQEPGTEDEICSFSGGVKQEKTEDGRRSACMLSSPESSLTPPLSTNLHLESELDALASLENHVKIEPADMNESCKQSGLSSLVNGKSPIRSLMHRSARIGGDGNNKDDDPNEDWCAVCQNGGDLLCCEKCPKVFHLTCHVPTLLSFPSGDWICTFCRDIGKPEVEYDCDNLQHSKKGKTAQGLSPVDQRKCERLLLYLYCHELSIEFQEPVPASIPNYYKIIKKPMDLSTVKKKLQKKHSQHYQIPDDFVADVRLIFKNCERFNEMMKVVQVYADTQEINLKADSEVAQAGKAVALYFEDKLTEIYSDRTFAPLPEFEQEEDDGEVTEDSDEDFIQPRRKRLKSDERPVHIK

WDR9(2) = target: T12, WDR9(2) (Homo sapiens, UniProt Q9NSI6); assay: BromoScan selectivity panel (Kd); format: binding
T12 construct: WDR9(2)

[1] = test system: BRD4-dependent Nut-Midline Carcinoma line 797; assay: Cell viability (ATPlite) in BRD4 dependant cell line 797; conditions: for EC50: Homo sapiens

T12 sequence (Q9NSI6 1313-1418 limits assumed): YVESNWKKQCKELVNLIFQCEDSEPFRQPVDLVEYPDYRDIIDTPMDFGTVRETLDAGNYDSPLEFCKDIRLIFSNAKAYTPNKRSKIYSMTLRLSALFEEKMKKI
T5 sequence (Q15059 306-415 limits assumed): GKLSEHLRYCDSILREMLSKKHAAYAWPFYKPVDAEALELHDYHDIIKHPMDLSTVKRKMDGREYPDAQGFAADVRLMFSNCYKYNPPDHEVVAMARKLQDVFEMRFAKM
T10 sequence (Q86U86 177-287 limits assumed): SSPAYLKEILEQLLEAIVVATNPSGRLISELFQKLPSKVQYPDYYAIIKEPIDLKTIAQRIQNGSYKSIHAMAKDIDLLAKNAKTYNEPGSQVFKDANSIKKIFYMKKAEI
T4 sequence (Q15059 34-140 limits assumed): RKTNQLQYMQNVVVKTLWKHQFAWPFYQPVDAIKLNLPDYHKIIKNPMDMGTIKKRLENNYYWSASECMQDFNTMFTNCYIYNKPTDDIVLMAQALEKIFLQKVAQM
T3 sequence (P25440 344-453 limits assumed): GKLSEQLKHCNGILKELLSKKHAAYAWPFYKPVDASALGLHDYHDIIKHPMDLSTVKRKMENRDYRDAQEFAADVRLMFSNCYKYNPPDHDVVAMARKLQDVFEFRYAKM
T2 sequence (P25440 74-180 limits assumed): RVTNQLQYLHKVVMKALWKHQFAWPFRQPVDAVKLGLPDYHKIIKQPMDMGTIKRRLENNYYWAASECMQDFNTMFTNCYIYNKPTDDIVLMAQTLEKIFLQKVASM

Work on `Cc1noc(C)c1-c1ccc(-c2nc3cnccn3c2NC(C)(C)C)cc1` [UMB32, N-(tert-butyl)-2-(4-(3,5-dimethylisoxazol-4-yl)phenyl)imidazo[1,2-a]pyrazin-3-amine] yielded a Kd (ATAD2A; Table 8, read-out: Kd (nM) ATAD2A) of at least 40000 nM, a Kd (ATAD2A; Table 9, read-out: BromoScan Kd, nM ATAD2A) of at least 40000 nM and a Kd (BRD2(1); Table 8, read-out: Kd (nM) BRD2(1)) of 94 nM. For the same molecule, the Kd (BRD2(1); Table 9, read-out: BromoScan Kd, nM BRD2(1)) was 94 nM, the Kd (BRD2(2); Table 8, read-out: Kd (nM) BRD2(2)) was 95 nM and the Kd (BRD2(2); Table 9, read-out: BromoScan Kd, nM BRD2(2)) was 95 nM. The Kd (BRD3(1); Table 8, read-out: Kd (nM) BRD3(1)) was 35 nM, the Kd (BRD3(1); Table 9, read-out: BromoScan Kd, nM BRD3(1)) was 35 nM and the Kd (BRD3(2); Table 8, read-out: Kd (nM) BRD3(2)) was 38 nM. It also gave a Kd (BRD3(2); Table 9, read-out: BromoScan Kd, nM BRD3(2)) of 38 nM, a Kd (BRD4(2); Table 8, read-out: Kd (nM) BRD4(2)) of 31 nM and a Kd (BRD4(2); Table 9, read-out: BromoScan Kd, nM BRD4(2)) of 31 nM. The Kd (BRDT(1); Table 8, read-out: Kd (nM) BRDT(1)) was 110 nM, the Kd (BRDT(1); Table 9, read-out: BromoScan Kd, nM BRDT(1)) was 110 nM and the Kd (BRDT(2); Table 8, read-out: Kd (nM) BRDT(2)) was 75 nM. For the same molecule, the Kd (BRDT(2); Table 9, read-out: BromoScan Kd, nM BRDT(2)) was 75 nM, the Kd (BRPF1; Table 8, read-out: Kd (nM) BRPF1) was at least 40000 nM and the Kd (BRPF1; Table 9, read-out: BromoScan Kd, nM BRPF1) was at least 40000 nM. It also gave a Kd (BRPF3; Table 8, read-out: Kd (nM) BRPF3) of at least 40000 nM, a Kd (BRPF3; Table 9, read-out: BromoScan Kd, nM BRDF3) of at least 40000 nM and a Kd (PERM1(2); Table 8, read-out: Kd (nM) PERM1(2)) of at least 40000 nM. For the same molecule, the Kd (PERM1(2); Table 9, read-out: BromoScan Kd, nM PERM1(2)) was at least 40000 nM, the Kd (TRIM33(PHD Bromo.); Table 8, read-out: Kd (nM) TRIM33(PHD Bromo.)) was at least 40000 nM and the Kd (TRIM33(PHD Bromo.); Table 9, read-out: BromoScan Kd, nM TRIM33(PHD, Bromo.)) was at least 40000 nM. For the same molecule, the Kd (WDR9(2); Table 8, read-out: Kd (nM) WDR9(2)) was at least 40000 nM, the Kd (WDR9(2); Table 9, read-out: BromoScan Kd, nM WDR9(2)) was at least 40000 nM and the EC50 [1] was 1.13 µM. For the same molecule, the EC50 ([1]; read-out: 797--EC50 (μM)) was 0.724 µM, the EC50 ([1]; read-out: BRD4 EC50 (μM)) was 1.1 µM and the “cellular activity in the BRD4 dependant cell line” value ([1]; text b618, b620) was “shows cellular activity in the BRD4 dependant cell line”.
